{"source": "patent US5541217A", "about": "“4-arylcyclopenta[c]pyrrole analgesics” (Ortho Pharmaceutical Corporation, priority 1995, dated 1996)"}
{"test_system": "acetylcholine-bromide induced abdominal constriction response", "experiment": "Mouse Acetylcholine Bromide-Induced Abdominal Constriction Assay", "assay_type": "in vivo", "conditions": "po, 30 min before i.p. 5.5 mg/kg acetylcholine bromide, 10 min observation", "units": {"% Inhibition at 30 mg/kg": "%"}}
{"smiles": "CN1C[C@H]2CC[C@](O)(c3cccc(C(F)(F)F)c3)[C@H]2C1", "note": "(relative stereo) [Cp-3]", "% Inhibition at 30 mg/kg": 87}
{"smiles": "CN1C[C@H]2CC[C@](O)(c3ccccc3)[C@H]2C1", "note": "(relative stereo) [Cp-1]", "% Inhibition at 30 mg/kg": 87}
{"smiles": "CN1C[C@H]2CC[C@](O)(c3ccc(F)cc3)[C@H]2C1", "note": "(relative stereo) [Cp-2]", "% Inhibition at 30 mg/kg": 87}
{"smiles": "CN1C[C@H]2CC[C@@H](c3ccc(F)cc3)[C@H]2C1", "note": "(relative stereo) [Cp-5]", "% Inhibition at 30 mg/kg": 87}
{"test_system": "acetylcholine-bromide induced abdominal constriction response", "experiment": "Mouse Acetylcholine Bromide-Induced Abdominal Constriction Assay", "assay_type": "in vivo", "conditions": "sc, 30 min before i.p. 5.5 mg/kg acetylcholine bromide, 10 min observation", "units": {"% Inhibition at 30 mg/kg": "%"}}
{"smiles": "CN1C[C@H]2CC[C@@H](c3cccc(C(F)(F)F)c3)[C@H]2C1", "note": "(relative stereo) [Cp-6]", "% Inhibition at 30 mg/kg": 87}
{"smiles": "CN1C[C@H]2CC[C@H](c3ccccc3)[C@H]2C1", "note": "(relative stereo) [Cp-7]", "% Inhibition at 30 mg/kg": 100}
{"smiles": "CN1C[C@H]2CC[C@@H](c3ccccc3)[C@H]2C1", "note": "(relative stereo) [Cp-4]", "% Inhibition at 30 mg/kg": 100}
